The source of these data is ChEMBL document CHEMBL1133922, “Evolution of anti-HIV drug candidates. Part 2: Diaryltriazine (DATA) analogues” (Bioorg Med Chem Lett, 2001).

What all share (assay type): functional, organism-based
What all share (details): Human immunodeficiency virus 1, MT4

In experiment [1] the test system is Human immunodeficiency virus 1. Put plainly: Inhibitory activity against 188L strain of HIV-1 in MT-4 cell was determined.
Experiment [2] concerns Human immunodeficiency virus 1. Put plainly: Inhibitory activity against 181C strain of HIV-I in MT-4 cell was determined.
Experiment [3] deals with Human immunodeficiency virus 1. The experiment in a line: Inhibitory activity against 100I strain of HIV-I in MT-4 cell was determined.
In experiment [4] the test system is Human immunodeficiency virus 1. Put plainly: Inhibitory activity against 103N strain of HIV-I in MT-4 cell was determined.
The subject of experiment [5] is Human immunodeficiency virus 1. The experiment in a line: Inhibitory activity against LAI strain of HIV-I in MT-4 cell was determined.

`CC(=N)Nc1nc(Cc2c(Cl)cccc2Cl)nc(Nc2ccc(C#N)cc2)n1`: the IC50 (in general, the concentration that gives 50% inhibition) in experiment [1] amounted to 0.358 µM; in experiment [2], 0.21 µM; in experiment [3], 0.611 µM; in experiment [4], 0.04 µM; in experiment [5], 0.0027 µM.

With `CN(C)/C=N\c1nc(Cc2c(Cl)cccc2Cl)nc(Nc2ccc(C#N)cc2)n1`, the IC50 came out at 0.251 µM in experiment [1]; 0.316 µM in experiment [2]; 0.631 µM in experiment [3]; 0.016 µM in experiment [4]; 0.0025 µM in experiment [5].

With `Cc1cc(Br)c(Oc2ncnc(Nc3ccc(C#N)cc3)n2)c(Br)c1`, the IC50 in experiment [1] was 0.398 µM; in experiment [2], 0.04 µM; in experiment [3], 0.016 µM; in experiment [4], 0.006 µM; in experiment [5] it was 0.0013 µM.

Consider `Cc1cc(C)c(Cc2nc(N)nc(Nc3ccc(C#N)cc3)n2)c(C)c1`, for which the half-inhibitory concentration (IC50) in experiment [1] is 0.045 µM; in experiment [2] it was 0.015 µM; in experiment [3], 0.082 µM; in experiment [4] it was 0.003 µM; in experiment [5], 0.0008 µM.

`CN(C)CCNc1nc(Cc2c(Cl)cccc2Cl)nc(Nc2ccc(C#N)cc2)n1`: the IC50 in experiment [1] was 0.297 µM; in experiment [2], 0.379 µM; in experiment [3] it was 1.26 µM; in experiment [4], 0.021 µM; in experiment [5] it was 0.005 µM.

Consider `Cc1cc(N)cc(C)c1Oc1nc(N)nc(Nc2ccc(C#N)cc2)n1`, for which the values for the IC50 in experiment [2], in experiment [4] and in experiment [5] were more than 100 µM, more than 100 µM and 7.83 µM, respectively.

On to `C[S+]([O-])c1nc(Cc2c(Cl)cccc2Cl)nc(Nc2ccc(C#N)cc2)n1` (configuration not stated), for which the IC50 in experiment [2] came to 68.5 µM; in experiment [4] it was 15.5 µM; in experiment [5], 1.55 µM.

Regarding `N#Cc1ccc(Nc2nc(Cl)nc(Cc3c(Cl)cccc3Cl)n2)cc1`, the IC50 in experiment [2] was found to be 10 µM; in experiment [4], 10 µM; in experiment [5] it was 1.08 µM.

Take `CCCNc1nc(Cc2c(Cl)cccc2Cl)nc(Nc2ccc(C#N)cc2)n1`: it took 0.849 µM to reach half-maximal inhibition in experiment [5] (IC50).

In experiment [5], `N#Cc1ccc(Nc2nc(Cc3c(Cl)cccc3Cl)nc(N3CCOCC3)n2)cc1` displayed an IC50 of 0.194 µM.

Regarding `CN(C)c1nc(Cc2c(Cl)cccc2Cl)nc(Nc2ccc(C#N)cc2)n1`, the IC50 in experiment [2] was 13.4 µM; in experiment [3] it was 32.2 µM; in experiment [4] it was 4.69 µM; in experiment [5], 0.166 µM.

With `N#Cc1ccc(Nc2nc(S)nc(Cc3c(Cl)cccc3Cl)n2)cc1`, the values for the IC50 in experiment [2], in experiment [4] and in experiment [5] were 1.61 µM, 0.723 µM and 0.094 µM, respectively.

Regarding `N#Cc1ccc(Nc2nc(Cc3c(Cl)cccc3Cl)nc(N=[N+]=[N-])n2)cc1`, the results for the IC50 in experiment [2], in experiment [4] and in experiment [5] were 1.14 µM, 0.224 µM and 0.014 µM, respectively.

As for `N#Cc1ccc(Nc2nc(O)nc(Cc3c(Cl)cccc3Cl)n2)cc1`, the IC50 came out at 2.12 µM in experiment [2], 0.607 µM in experiment [4] and 0.16 µM in experiment [5].

Regarding `COc1cccc(OC)c1Oc1nc(N)nc(Nc2ccc(C#N)cc2)n1`, the concentration for half-maximal inhibition (IC50) is 1.56 µM in experiment [2], 0.526 µM in experiment [4] and 0.031 µM in experiment [5].

On to `CSc1nc(Cc2c(Cl)cccc2Cl)nc(Nc2ccc(C#N)cc2)n1`, for which the IC50 worked out at 2.35 µM in experiment [2], 0.336 µM in experiment [4] and 0.018 µM in experiment [5].

Regarding `N#Cc1ccc(Nc2nc(F)nc(Cc3c(Cl)cccc3Cl)n2)cc1`, the 50% inhibitory concentration (IC50) in experiment [2] was found to be 100 µM; in experiment [4], 52.6 µM; in experiment [5] it was 5.26 µM.

`CON(C)c1nc(Cc2c(Cl)cccc2Cl)nc(Nc2ccc(C#N)cc2)n1` had an IC50 in experiment [5] of 0.086 µM.

In the case of `N#Cc1ccc(Nc2nc(N)nc(Cc3ccccc3)n2)cc1`, the IC50 in experiment [2] is more than 100 µM; in experiment [3] it was 8.07 µM; in experiment [4], 8.47 µM; in experiment [5], 0.285 µM.

`CC(C)NC(=O)Nc1nc(Cc2c(Cl)cccc2Cl)nc(Nc2ccc(C#N)cc2)n1`: the IC50 in experiment [2] turned out to be 43.8 µM; in experiment [3] it was 35.1 µM; in experiment [4], 7.55 µM; in experiment [5], 0.379 µM.
